Experiments:
[1] = system: SARS-CoV-2 isolate USA-WA1/2020; assay: SARS-CoV-2 infection in Vero E6 cells, qRT-PCR of Spike RNA (Example 3); format: cell-based
[2] = system: SARS-CoV-2; assay: SARS-CoV-2 infection assay in Huh7.5 cells, nucleocapsid immunofluorescence (Example 6); format: cell-based; details: MOI 0.1, 48 hours
[3] = system: Hep-2 cells; assay: Cell viability assay for the RSV table (CC50); format: cell-based
[4] = system: SARS-CoV-2 isolate USA-WA1/2020; assay: SARS-CoV-2 infection in Huh7.5 cells, qRT-PCR (Example 7); format: cell-based
[5] = system: VERO E6 cells; assay: CellTiter-Glo luminescent cell viability assay, Vero E6 (Example 3); format: cell-based
[6] = system: USA WA-01 strain of SARS CoV-2; assay: Anti-coronavirus activity in Vero E6 cells, qPCR of spike RNA (Example 2); format: cell-based
Experimental: (§1) Ten thousand Vero E6 cells were seeded in 100 microliters of culture medium in 96 well plates. The following day serial two-fold dilutions of antiviral compounds or the DMSO-containing vehicle were added to each well. The USA WA-01 strain of SARS CoV-2 was added to each well at a multiplicity of infection of 0.1 thirty minutes later. Cells were incubated for 48 hours, washed twice in PBS and lysed with TRIzol. RNA was extracted using Directzol micro RNA columns. RNA was made into cDNA and assayed for the SARS CoV-2 spike protein and for a housekeeping gene (RPLPO) RNA by qPCR. Data represents the average of duplicate wells. Cellular cytotoxicity was also measured in VERO E6 cells. […] Cytotoxicity (CC50) was assessed using a commercially available MTT assay.

[7] = system: SRV A2 strain of RSV; assay: RSV infection in Hep-2 cells, CPE reduction; format: cell-based, respiratory syncytial virus; details: RSV A2 in Hep-2 cells, 72 to 96 hours
Experimental: Methods: The SRV A2 strain of RSV was obtained from the ATCC. Ten thousand Hep-2 cells were seeded into each well of a 96-well plate in EMEM with 10% fetal bovine serum and 1% penicillin and streptomycin. Each well was inoculated with 100 TCID50 of virus. Two hours later wells were washed once with medium and serial four-fold dilutions of candidate antiviral drugs were added.

[8] = system: PSC-human lung cells; assay: Cell viability assay CellTiter-Glo, PSC-human lung cells (Example 7)
[9] = system: Caco-2 cells; assay: Cell viability assay CellTiter-Glo, Caco-2 cells (Example 7); details: Caco-2 cells, CellTiter-Glo
[10] = system: Huh7.5 cells; assay: Cell viability assay CellTiter-Glo, Huh7.5 cells (Example 7)
[11] = system: VERO E6 cells; assay: Cellular cytotoxicity in Vero E6 cells, MTT assay (Example 2); format: cell-based
Experimental: as §1

[12] = Vero E6 cells, MOI 0.01, 48 hours, mean±SD
[13] = based on the EC50 values, Vero E6
[14] = Vero E6 cells, MOI 0.1, 48 hours

## CCCCCCCCCCCCCCCCCCOC[C@H](COP(=O)(O)OC[C@H]1O[C@@](C#N)(c2ccc3c(N)ncnn23)[C@H](O)[C@@H]1O)OCc1ccccc1 [Compound 15d, 1-O-octadecyl-2-O-benzyl-sn-glyceryl-phospho-RVn]
[1]; CC50/EC50, Vero E6
  Selectivity: 240
[1]; [12]
  EC50: 190 ± 23 nM
  EC90: 560 ± 0.2 nM
[1]; [13]
  times more active than RDV: 24
  times more active than RVn: 8.9
[2]
  EC50: 138 nM
  EC90: 377 nM
[3]
  CC50: 14700 nM
[4]; CC50/EC50, Huh7.5 cells
  Selectivity: 449
[4]; Huh7.5 cells, MOI 0.01, 48 hours, qRT-PCR (Example 7)
  EC90: 150 nM
[4]; Huh7.5 cells, MOI 0.01, 48 hours, qRT-PCR (Example 7), listed as ODBG-P-RVn
  EC50: 140 nM
[5]
  CC50: 46000 nM
[6]; CC50/EC50, Vero E6
  Selectivity Index: >238
[6]; [14]
  EC50: 210 nM
  EC90: 560 nM
[7]
  EC50: 10 nM
  EC90: 19 nM
[8]
  CC50: 61500 nM
[9]
  CC50: 88400 nM
[10]
  CC50: 62900 nM
[11]
  CC50: > 50000 nM
